Measurements reported in patent US20050026903A1, “CCK-1 receptor modulators” (priority 2003, published 2005).
pKi: −log10 of the molar value. Structures can show the parent of a compound that is named as a salt. Where two headings read alike, the source gives them in different places.

Key:
CCK-1 receptor = target: T1, CCK-1 receptor (Homo sapiens, UniProt P32238); test: CCK-1 receptor radioligand binding assay ([125I]-BH-CCK-8S competition, membranes of stably transfected CHO-K1 cells)
T1 construct: expressed in transfected cells; membranes
T1 sequence (P32238 1-428): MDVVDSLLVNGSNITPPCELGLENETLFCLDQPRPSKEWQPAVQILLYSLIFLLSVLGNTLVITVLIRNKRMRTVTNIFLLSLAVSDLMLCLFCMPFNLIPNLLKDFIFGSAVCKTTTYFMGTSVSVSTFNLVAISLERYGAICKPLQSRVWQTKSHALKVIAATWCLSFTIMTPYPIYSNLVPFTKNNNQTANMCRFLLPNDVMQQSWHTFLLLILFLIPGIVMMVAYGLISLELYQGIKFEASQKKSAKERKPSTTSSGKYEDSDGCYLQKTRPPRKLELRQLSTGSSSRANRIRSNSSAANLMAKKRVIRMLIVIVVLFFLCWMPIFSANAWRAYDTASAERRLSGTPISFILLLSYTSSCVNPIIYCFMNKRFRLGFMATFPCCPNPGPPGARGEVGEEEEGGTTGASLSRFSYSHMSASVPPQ
Procedure: CHO-K1 cells that had undergone stable transfection with the CCK-1 receptor were grown in DMEM supplemented with L-glutamine (2 mM), penicillin (50 units/mL) and streptomycin (50 μg/mL). Cells were cultured under continuous G418 selection (2 mM) and were harvested using a rubber cell scraper. CHO-K1 cells were sub-cultured a maximum of ten times before being reseeded from the original stocks.
Membranes were prepared from the stably transfected CHO-K1 cells. Frozen cell pellets (−40° C.) were thawed in 14 mL of buffer A (10 mM HEPES, 130 mM NaCl, 4.7 mM KCl, 5 mM MgCl, 1 mM EGTA and 15.4 mg/100 mL bacitracin at pH 7.2), adapted from Harper et al. (Br. J. Pharmacol. (1996) 118, pp 1717-1726). The thawed pellets were homogenized using a Polytron PT-10 (7×1 s). […]
All assays were conducted in 96-well plates (GF/B millipore filter plates) using buffer A, with 0.3 μM PD-134,308, for the dilutions. […] Total binding of [125I]—BH—CCK-8S was determined in the presence of 15 μL of buffer A. Non-specific binding of [125I]—BH—CCK-8S was determined in the presence of 15 μL of 100 μM 2-naphthalenesulphonyl L-aspartyl-(2-phenethyl)amide (2-NAP: see R. A. Hull et al., Br. J. Pharmacol. (1993) 108, pp 734-740), a CCK-1 receptor selective antagonist that is structurally unrelated to the radioligand [125I]—BH—CCK-8S. […] Bound radioactivity was determined using a gamma counter (count time=1 min). […]

In the case of `COc1ccc(-n2nc(C[C@H](C([O])=O)c3cccc(C)c3)cc2-c2ccc(Cl)c(Cl)c2)cc1` (as salt: sodium) [Example 1, (S)-Sodium; 3-[5-(3,4-dichloro-phenyl)-1-(4-methoxy-phenyl)-1H-pyrazol-3-yl]-2-m-tolyl-propionate], the melting point was 295.5 to 297.5 °C.
`COc1ccc(-n2nc(CC(C(=O)O)c3cccc4ccccc34)cc2-c2ccc3c(c2)OCO3)cc1` (racemic) [Example 27, 3-[5-Benzo[1,3]dioxol-5-yl-1-(4-methoxy-phenyl)-1H-pyrazol-3-yl]-2-naphthalen-1-yl-propionic acid] gave a Ki (CCK-1 receptor; [125I]-BH-CCK-8S competition, membranes of CHO-K1 cells stably transfected with CCK-1 receptor, 0.3 μM PD-134,308 present, read-out: pKi (converted)) of 6.31 nM.
For `COc1ccc(-n2nc(C[C@H](C([O])=O)c3cccc(C)c3)cc2-c2ccc(Cl)c(Cl)c2)cc1` [Example 1, (S)-Sodium; 3-[5-(3,4-dichloro-phenyl)-1-(4-methoxy-phenyl)-1H-pyrazol-3-yl]-2-m-tolyl-propionate], the pKi (CCK-1 receptor) was 8.00.
